Reference: patent US20090017003A1, “THIOSULFONATE ANTI-INFLAMMATORY AGENTS” (SULFIDRIS S.R.L., priority 2006, published 2009)

Assays:
DU-145 [1] = settings: DU-145 prostate tumour cells; Engl T. et al., Life Sciences 2005; cited from earlier work
PC-3 [2] = settings: PC-3 prostate tumour cells; Engl T. et al., Life Sciences 2005; cited from earlier work
[3] = assay type: in vivo; settings: male rats, once daily by gavage for three days, diclofenac 10 mg/kg, compound of example 5 14 mg/kg
Experimental: Thirty male rats (150-200 g) were divided into three groups of 10 animals/group and treated with vehicle, diclofenac (10 mg/kg) and the compound of example 5 (14 mg/kg) for three days once daily by gavage. The vehicle consisted in 1 mL of 0.5% carboxymethylcellulose (CMC). At the fifth day, survival animals were sacrificed, by an overdose of ether, and autopsied to detect any pathological changes, particularly in the gastrointestinal tract. Prostaglandin E2 was evaluated in the liver homogenate by standard enzyme immunoassay procedure as described by Warner T D et al. (J.P.E.T. 2004, 310, 642-7).

DU-145 [4] = assay: Growth and adhesion to endothelial cells of DU-145 prostate tumour cells in vitro; assay type: cell-based
Experimental: (§1) The compound described in example 6 has been tested in vitro on 2 prostate tumour cells (DU-145 and PC-3). […] The activity reported in the literature for the parent compound (valproic acid) on the same tumour cells is achieved at much higher concentrations (1 mM). (Engl. T et al. Life Sciences, 2005).

PC-3 [5] = assay: Growth and adhesion to endothelial cells of PC-3 prostate tumour cells in vitro; assay type: cell-based
Experimental: as §1

gp91^phox = assay: gp91phox expression by cultured pulmonary endothelial cells; assay type: cell-based, porcine; settings: 16 hr incubation of pig pulmonary artery cells with TNFα
Description: (§2) Effects of the compound prepared in example 4 on superoxide formation, gp91^phox expression by porcine cultured pulmonary endothelial cells and intact cavernosal tissue were studied according to Muzzaffar S. et al. (Br. J. Pharmacol. 2005 September; 146(1):109-17).

superoxide formation = assay: Superoxide formation by cultured pulmonary endothelial cells; assay type: cell-based, porcine
Description: as §2

Compound: CCCC(CCC)C(=O)O [valproic acid]
- concentration at which activity is achieved (literature) (DU-145 [1]): 1 mM
- concentration at which activity is achieved (literature) (PC-3 [2]): 1 mM

Compound: O=C(O)Cc1ccccc1Nc1c(Cl)cccc1Cl [Diclofenac, diclofenac, reference compound]
- % deaths ([3]; 10 animals/group): 40%

Compound: CS(=O)(=O)SCCOC(=O)Cc1cccc(Nc2c(Cl)cccc2Cl)c1 [Example 5, [3-(2,6-dichloro-phenylamino)-phenyl]-acetic acid 2-methanesulfonylsulfanyl-ethyl ester]
- % gastrointestinal ulcer ([3]; autopsy at fifth day): 10%

Compound: CCCC(CCC)C(=O)OCCSS(C)(=O)=O [Example 6, 2-propyl-pentanoic acid 2-methanesulfonylsulfanyl-ethyl ester]
- concentration range inhibiting adhesion to endothelial cells (DU-145 [4]): 5 to 30 µM
- concentration range inhibiting growth (DU-145 [4]): 5 to 30 µM
- concentration range inhibiting adhesion to endothelial cells (PC-3 [5]): 5 to 30 µM
- concentration range inhibiting growth (PC-3 [5]): 5 to 30 µM

Compound: CCCc1nn(C)c2c(=O)[nH]c(-c3cc(S(=O)(=O)N4CCN(CC(=O)OCCSS(C)(=O)=O)CC4)ccc3OCC)nc12 [Example 4, {4-[4-ethoxy-3-(1-methyl-7-oxo-3-propyl-6,7-dihydro-1H-pyrazolo[4,3-d]pyrimidin-5-yl)-benzenesulfonyl]-piperazin-1-yl}-acetic acid 2-methanesulfonylsulfanyl-ethyl ester]
- inhibition of gp91phox expression (gp91^phox): inhibited
- inhibition of superoxide formation (superoxide formation; 16 hr incubation of pig pulmonary artery cells with TNFα): potent inhibitor
- inhibition of superoxide formation (superoxide formation; 16 hr incubation of pig pulmonary artery cells with thromboxane A2 analogue U46619): potent inhibitor
- concentration reducing superoxide formation compared with sildenafil citrate (superoxide formation; response to inflammatory mediators): lower concentrations than sildenafil citrate
